Active and inactive are the calls of the source. No cut-off for these calls is given here.
How the values were obtained:
Mus musculus [1] = species: Mus musculus; assay: Antiinflammatory activity against croton oil-induced ear inflammation in BALB/c mouse at 200 ug/ear after 6 to 24 hrs; assay type: functional, organism-based
Mus musculus [2] = species: Mus musculus; assay: Reduction in thymus weight in BALB/c mouse at 400 ug/ear; assay type: functional, organism-based
Mus musculus [3] = species: Mus musculus; assay: Reduction in thymus weight in BALB/c mouse at 200 ug/ear; assay type: functional; parameters: scale not given: the % may be the effect or the level left

Compound | Activity (Mus musculus [1]) | Activity (Mus musculus [2]) | Activity (Mus musculus [3])
COc1cc(C)c2c(=O)cc(C[C@@H](C)O)oc2c1[C@@H]1O[C@H](CO)[C@@H](O)[C@H](O)[C@H]1OC(=O)/C=C/c1ccccc1 | Active | inactive | –
C[C@]12CCC(=O)C=C1CC[C@@H]1[C@@H]2[C@@H](O)C[C@@]2(C)[C@H]1CC[C@]2(O)C(=O)CO [HYDROCORTISONE] | Active | – | 50%

— ChEMBL document CHEMBL1158222, “Antiinflammatory C-glucosyl chromone from Aloe barbadensis” (1996)
